The values that follow come from patent publication US8541670B2, “Compositions and methods for inhibiting tumor cell growth” (priority 2007, dated 2013).

Several values for one entry are separate records, joined by “and”; a condition that tells them apart may be missing. Equal values may be shown once. Where no end group is shown, it is not given here. red fluorescent dye = not defined here

The target of one experiment is T1, AKT1 (Homo sapiens, UniProt P31749).
T1 construct: purchased Upstate Biotechnology
The experiment can be described thus: AKT1 radioactive in vitro kinase assay (32P incorporation into Ser-21 GSK-3 substrate peptide). It is filed as biochemical. The method, then: AKT1 catalytic activity was determined by measuring the incorporation of −^32P into Ser-21 glycogen synthase kinase 3[…] (GSK-3[…]) substrate peptide. Histogram bars represent the number of −^32P counts per minute (CPM). Reactions were carried out in the presence of different concentrations of the ZaTa peptide (SEQ ID NO:60), as well as a control peptide (SEQ ID NO:59) which shares 11 out of 17 amino acids in common with the N-terminus of the ZaTa peptide.
Of particular interest with regard to inhibitory activity toward AKT was peptide […](SEQ ID NO:60) which flanked the Thr-197 phosphorylation site of PKAc. […] Furthermore, the inhibitory effect of ZaTa peptide was compared with an adjacent peptide ([…] SEQ ID NO:59), a peptide that overlaps with the 11 N-terminal amino acid residues of the ZaTa peptide and carries the Thr-197 phosphorylation site. In this assay, the level of incorporation of −^32 P into Ser-21 GSK-3[…] substrate peptide was used as the measure of AKT1 in vitro catalytic activity.
For non-radioactive kinase assays, typically 25 ng of active AKT1 or PKAc (Upstate Biotechnology) was used in a kinase assay reaction buffer (20 mM MOPS, pH 7.2, 25 mM […]-glycerophosphate, 5 mM EGTA, 1 mM Na3VO4, 1 mM dithiothreitol, 75 mM MgCl2, and 0.5 mM ATP) in the presence of either 1 μL of Ser-9 GSK-3 GST fusion protein (Cell Signaling), or recombinant DARPP-32 (10 μg). For the radioactive kinase assays, typically 25 ng of kinase was added to the kinase assays reaction buffer (20 mM MOPS, pH 7.2, 25 mM […]-glycerophosphate, 5 mM EGTA, 1 mM Na3VO4, 1 mM dithiothreitol) containing 30 μM of dephosphorylated Ser-21 GSK-3 substrate peptide (Upstate Biotechnology) in the presence of different concentrations of inhibitor. Reactions were initiated by adding [−^32P] ATP (10 μCi/reaction) which was diluted in the reaction buffer, plus 500 μM cold ATP and 75 mM MgCl2. Kinase reactions were incubated 30° C. for 10-20 minutes. A 5 μL aliquot of the reaction was transferred to phosphocellulose paper, washed for 30 minutes with dH2O, and CPM of samples read in scintillation counter.

The target in another experiment is TrkB (Homo sapiens, UniProt Q16620). The experiment can be described thus: Cell-based kinase assay, phosphorylation of intracellular substrate (Tyr-783 PLC). The method, then: As a specific substrate, the phosphorylation level of GSK-3[…] at Ser-9 was also evaluated. […] The decrease was specific to the AKT phosphorylation site on GSK-3[…] at Ser-9, since a change in the phosphorylation level of GSK-3[…] at Tyr-216 or GSK-3[…] at Tyr-279 was not observed. Moreover, the in vivo reduction of the phosphorylation of AKT substrates was more obvious at the injection site, since a significant change in the phosphorylation of AKT substrates in the frontal cortex or cerebellum between the two hemispheres was not observed. […] To test the specificity/selectivity of ZaTa as the inhibitor of AKT1 versus the other major kinases, a series of in vitro kinase assays was performed at IC50 for AKT1 and at ten times higher concentrations. […]
Phosphorylation sites for kinases analyzed herein included Ser-235/236 S6 (a substrate for p70S6K), Tyr-207 CRKL (a substrate for Abl; Zipfel, et al. (2004) supra), Ser-241 PDK1 (a substrate for PI3K), Tyr-1022/1023 JAK1 (a substrate for JAK3; Wang, et al. (2003) supra), Ser-421 Huntingtin (a substrate for SGK; Rangone, et al. (2004) supra), Tyr-783 PLC (a substrate for TrkB; Middlemas, et al. (1994) supra), and Ser-338 cRaf (a substrate for PAK3; King, et al. (1998) supra).

T1 sequence (P31749 whole entry): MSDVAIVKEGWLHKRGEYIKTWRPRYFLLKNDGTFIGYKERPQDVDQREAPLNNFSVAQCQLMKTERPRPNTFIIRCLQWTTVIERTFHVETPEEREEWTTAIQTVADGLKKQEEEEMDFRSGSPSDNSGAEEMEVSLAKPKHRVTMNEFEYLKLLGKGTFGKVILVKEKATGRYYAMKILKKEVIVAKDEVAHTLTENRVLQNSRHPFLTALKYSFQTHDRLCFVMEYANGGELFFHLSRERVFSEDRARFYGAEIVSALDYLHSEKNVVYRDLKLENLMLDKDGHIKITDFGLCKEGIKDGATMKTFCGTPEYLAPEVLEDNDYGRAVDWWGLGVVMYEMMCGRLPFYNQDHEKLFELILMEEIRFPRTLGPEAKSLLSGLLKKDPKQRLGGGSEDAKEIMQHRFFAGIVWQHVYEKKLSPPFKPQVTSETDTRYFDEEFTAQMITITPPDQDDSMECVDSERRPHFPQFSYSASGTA

For AKRVKGRTWTLCGTPEY [ZaTa], at AKT1 (32P incorporation into Ser-21 GSK-3 substrate peptide, read-out: IC-50, AKT1 catalytic activity in vitro), the IC50 is ~100 nM and 100 nM. For the same substance, at AKT1 (FIG. 1 legend), the “IC-50 of the ZaTa peptide (in words)” value is listed as “within a nanomolar range”. Also, the “whether peptide is a substrate for AKT” value at AKT1 (control kinase reactions with peptide and AKT only) is given as “not a substrate for AKT”.

As to “labeled ZaTa: ZaTa peptide labeled with a red fluorescent dye at its N-terminus ({red fluorescent dye}-AKRVKGRTWTLCGTPEY; reading uncertain)”, in the experiment with TrkB, the “inhibition of TrkB in cells” value is recorded as “did not cause inhibition”.
